The source of these data is ChEMBL document CHEMBL1201862, “PubChem BioAssay data set” (2004).

Holding throughout (experiment): NCI tumour cell line growth inhibition, 48 h
Experiment [1] concerns HOP-92.
Experiment [2] relates to UO-31.
In experiment [3] the test system is SNB-75.
Experiment [4] relates to RPMI-8226.
Experiment [5] has as its system RXF 393.
In experiment [6] the test system is SF-268.
Experiment [7] deals with SN12C.
In experiment [8] the test system is MDA-N.
In experiment [9] the test system is CAKI-1.
The test system of experiment [10] is SF-295.
Experiment [11] relates to MDA-MB-231.
The subject of experiment [12] is BT-549.
For experiment [13], the system named is MOLT-4.
For experiment [14], the system named is MCF7.
In experiment [15] the test system is U-251.
For experiment [16], the system named is UACC-257.
The test system of experiment [17] is NCI-H23.
Experiment [18] relates to MDA-MB-435.
Experiment [19] has as its system SW-620.
The subject of experiment [20] is HCT-116.

Molecules are shown by their SMILES.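 Results reflect a 48-hour exposure of cells in 96-well plates to compound at five concentrations. At the GI50, growth is halved.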 Calls of active or inactive are those of the source. Rule as the data show it: active = GI50 up to about 1.1 µM and inactive = higher.

In the case of `Cc1c(N)nc(C(CC(N)=O)NCC(N)C(N)=O)nc1C(=O)NC(C(=O)NC(C)C(O)C(C)C(=O)NC(C(=O)NCCc1nc(-c2nc(C(=O)NCCCNC(C)c3ccccc3)cs2)cs1)C(C)O)C(OC1OC(CO)C(O)C(O)C1OC1OC(CO)C(O)C(OC(N)=O)C1O)c1c[nH]cn1` (stereo not given), the GI50 in experiment [1] is 190 nM (active); in experiment [2] it was 283 nM (active); in experiment [3], 296 nM (active); in experiment [4], 3210 nM (inactive); in experiment [5], 156 nM (active); in [6], 2900 nM (inactive). The GI50 in experiment [7] was 2070 nM (inactive); in experiment [8] it was > 50000 nM (inactive); in [9], 25.8 nM (active); in experiment [10], 163 nM (active); in experiment [11], > 50000 nM (inactive); in experiment [12], 18200 nM (inactive). In addition, the GI50 in experiment [13] was 1830 nM (inactive); in [14] it was 4400 nM (inactive); in [15] it was 1260 nM (inactive); in experiment [16], 22300 nM (inactive); in experiment [17], 753 nM (active); in experiment [18], > 50000 nM (inactive). Further, the GI50 is 17700 nM (inactive) in [19] and 328 nM (active) in experiment [20].
On to `CC(=O)NC1C(OCc2ccccc2)OC(CO)C(O)C1OC(C)C(=O)NC(C)C(=O)NC(CCC(=O)NCCCNc1c2ccccc2nc2cccc([N+](=O)[O-])c12)C(N)=O` (stereo not given), for which the GI50 in experiment [1] is 1990 nM (inactive); in experiment [2], 2500 nM (inactive); in [3], 1990 nM (inactive); in [4], 590 nM (active); in [5] it was 1310 nM (inactive); in experiment [6], 1380 nM (inactive). The GI50 in experiment [7] is 1020 nM (active); in [8], 1250 nM (inactive); in experiment [9], 1700 nM (inactive); in [10] it was 3260 nM (inactive); in experiment [11] it was 1360 nM (inactive); in experiment [12] it was 2740 nM (inactive). In addition, the GI50 is 3270 nM (inactive) in [13]; 640 nM (active) in [14]; 1600 nM (inactive) in experiment [15]; 2000 nM (inactive) in experiment [16]; 2550 nM (inactive) in experiment [17]; 1160 nM (inactive) in experiment [18]. Further, the GI50 in [19] is 229 nM (active); in experiment [20], 263 nM (active).
In the case of `O=C1C=CC(=O)c2c(O)ccc(O)c21` [NAPHTHAZALIN], the GI50 in experiment [1] was 1690 nM (inactive); in experiment [2], 2110 nM (inactive); in experiment [3] it was 2090 nM (inactive); in experiment [4] it was 436 nM (active); in experiment [5], 1030 nM (active); in experiment [6], 2520 nM (inactive). The GI50 was 1330 nM (inactive) in experiment [7]; 2750 nM (inactive) in experiment [8]; 1270 nM (inactive) in [9]; 7910 nM (inactive) in experiment [10]; 2220 nM (inactive) in experiment [11]; 2040 nM (inactive) in experiment [12]. The GI50 in [13] is 150 nM (active); in [14], 2320 nM (inactive); in experiment [15], 5790 nM (inactive); in experiment [16] it was 1070 nM (active); in experiment [17], 2610 nM (inactive); in experiment [18], 3680 nM (inactive). Also, the GI50 in experiment [19] was 377 nM (active); in [20], 900 nM (active).
